Tests used:
[1] = test system: oedema in mouse ear induced with PMA (phorbol myristate acetate); assay: Acute contact dermatitis: TPA-induced ear oedema in mice; assay type: in vivo; settings: CD1 mice, 500 μg/ear topical in TPDS 30 minutes before 0.01% TPA, ear weight six hours later, vs TPA alone
Method: The antiinflammatory activity was evaluated by means of inhibition of the oedema in mouse ear induced with PMA (phorbol myristate acetate). A) Acute Contact Dermatitis Groups of 5 CD1 mice (18-24 g) were used. All the macrolide derivatives were dissolved in Trans-phase Delivery System (TPDS), a carrier containing 10% benzyl alcohol, 40% acetone and 50% isopropanol. 15 microlitres of the compounds (500 μg/ear), dissolved in TPDS, were applied topically to the inner surface of an ear; 30 minutes later, 12 microlitres of a solution of tetradecanoylphorbol acetate (TPA) at a concentration of 0.01% dissolved in acetone were applied to the same area. Six hours later, the animals were sacrificed by inhalation of CO2. The degree of oedema was calculated by subtracting the weight of a specified section of the untreated ear from that of the contralateral treated ear. To determine the degree of remission of the oedema, the weight difference of the groups treated with TPA+macrolides was then compared with the groups treated with TPA alone. The activity of the macrolides was measured by using the modified method of Zunic et al. (1998): MDL (Lysyl) GDP, a non-toxic muramyl dipeptide derivative inhibits cytokine production by activated macrophages and protects mice from phorbol ester- and oxazolone-induced inflammation (J. Invest. Dermatol., 111(1), 77-82).

[2] = test system: Escherichia coli (ATCC 25922); assay: Antibiotic activity by turbidimetric assay of bacterial growth; assay type: cell-based; settings: for IC20: concentration that inhibits growth of E. coli ATCC 25922 by 20%; for IC20 / IC50 / IC80: maximum test concentration 100 μM, mean of at least three incubation times; for IC50: concentration that inhibits growth of E. coli ATCC 25922 by 50%; for IC80: concentration that inhibits growth of E. coli ATCC 25922 by 80%; for activity towards bacterial growth (in words): turbidimetric assay, strains sensitive to erythromycin and telithromycin

IC50 [2] [µM] | Structure (SMILES) | Oedema (% inhibition) [1] [%] | IC20 [2] [µM] | IC80 [2] [µM] | IC20 ([2]; Escherichia coli, ATCC25922) [µM] | IC50 ([2]; Escherichia coli, ATCC25922) [µM] | IC80 ([2]; Escherichia coli, ATCC25922) [µM] | activity towards bacterial growth (in words) [2]
 | CC[C@H]1OC(=O)[C@H](C)[C@@H](O[C@H]2C[C@@](C)(OC)[C@@H](O)[C@H](C)O2)[C@H](C)[C@@H](O[C@@H]2O[C@H](C)C[C@H](N(C)C)[C@H]2O)[C@](C)(O)C[C@@H](C)CN(C)[C@H](C)[C@@H](O)[C@]1(C)O [Azithromycin] | 40 |  |  |  |  |  | 
> 100 | CCC1OC(=O)C(C)C(=O)C(C)C(OC2OC(C)CC(N(C)C(C)=O)C2O)C(C)(OC)CC(C)C(=O)C(C)C2N(CCCCn3cnc(-c4cccnc4)c3)C(=O)OC12C (stereo not shown) [Compound 1, 3′-demethyl-3′-acetyltelithromycin] | 81.7 | > 100 | > 100 |  |  |  | 
> 100 | CC[C@H]1OC(=O)[C@H](C)C(=O)[C@H](C)[C@@H](O[C@@H]2O[C@H](C)C[C@H](N(C)C(=O)c3ccccc3)[C@H]2O)[C@](C)(OC)C[C@@H](C)C(=O)[C@H](C)[C@H]2N(CCCCn3cnc(-c4cccnc4)c3)C(=O)O[C@]12C [Compound 2, 3′-demethyl-3′-benzoyltelithromycin] | 81.8 | > 100 | > 100 |  |  |  | 
 | CC[C@H]1OC(=O)[C@H](C)[C@@H](O[C@H]2C[C@@](C)(OC)[C@@H](O)[C@H](C)O2)[C@H](C)[C@@H](O[C@@H]2O[C@H](C)C[C@H](N(C)C)[C@H]2O)[C@](C)(O)C[C@@H](C)C(=O)[C@H](C)[C@@H](O)[C@]1(C)O [Erythromycin] | 42 |  |  | 3 | 7.8 | 24.3 | substantial inhibition of the bacterial development
 | CC[C@H]1OC(=O)[C@H](C)C(=O)[C@H](C)[C@@H](O[C@@H]2O[C@H](C)C[C@H](N(C)C)[C@H]2O)[C@](C)(OC)C[C@@H](C)C(=O)[C@H](C)[C@H]2N(CCCCn3cnc(-c4cccnc4)c3)C(=O)O[C@]12C [Telithromycin] | 79.7 |  |  | 2.7 | 5.7 | 14.9 | substantial inhibition of the bacterial development
